Structures are written as SMILES. “Also recorded” adds a separate entry of the source.

The target of one data set is ATM (Homo sapiens, UniProt Q13315). To be noted: cited from earlier work.
The subject of data set [1] is Chk1 and Claspin phosphorylation in CEM T-ALL cells. In words: Phosphoproteomics after G1 release. The class given is cell-based, human. To be noted: with and without DI-82; 6 and 12 h after G1 release. On the procedure: Cells were treated with a CDK4/6 inhibitor, PD-0332991 (Selleckchem) for 18 h to arrest in G1 phase. Cells were then washed twice with PBS and released in fresh media with treatment at a density of 0.5×10^6 cells/ml. Cells were collected at time point 6 and 12 h and solubilized using 0.5% sodium deoxycholate, 12 mM sodium lauryl sarcosine, and 50 mM triethylammonium bicarbonate pH 8.0 with 1 mL per 5×10^7 cells with trituration and vortexing. Cell lysates were heated at 95° C. for 5 min and water bath sonicated at RT for 5 min. Bicinchoninic acid protein assay (Pierce) was performed to determine protein concentration. […] Light, medium, and heavylabeled peptides were mixed 1:1:1, diluted with 0.1% formic acid to a final concentration of 3% acetonitrile and analyzed using 180 min data-dependent nLC-MS/MS on Thermo Orbitrap XL as later discussed. […] 5 uL of each SCX fraction was analyzed using 180 min data-dependent reverse-phase nLC-MS/MS on Thermo Orbitrap XL equipped with Eksigent Spark autosampler, Eksigent 2D nanoLC, and Phoenix ST Nimbus dual column source. […] Peptides were analyzed over 180 min linear gradient of 0-40% mobile phase B (97% acetonitrile, 3% dimethylsulfoxide, and 0.1% formic acid) at 300 nL/min. […]

Another data set has as its system CEM T-ALL. In words: Cell-Titer-Glo viability assay, 72 h. To be noted: read-out: IC50 of VE-822. The class given is cell-based. The procedure:
(§1) Cells were plated in a 384-well plate (1,000 cells/well for suspension cell lines and 500 cells/well for adherent cell lines in 30 μL). For suspension cell lines, the plate was incubated in 37° C. for 1 h to let the cells settle. For adherent cell lines, the plate was incubated overnight to allow the cells to seed. During incubation, drugs were diluted to desired concentration by serial dilution, vehicle condition was created by adding equivalent amount of DMSO. After incubation, 10 μL of diluted drugs were added to each well, and incubated for 72 h. After incubation, Cell TiterGlo reagent was added to each well according to manufacturer's instructions (Promega, CellTiter-Glo® Luminescent Cell Viability Assay). The plates were shaken for 2 min and incubated in dark for 8 min. Luminescence readings were obtained with luminometer (Molecular devices, SpectraMax).

A further data set relates to PANC-1 PDAC cells. In words: Cell-Titer-Glo viability assay, 72 h. To be noted: Homo sapiens, PANC-1, read-out: IC50 of VE-822. The class given is cell-based. On the procedure: as §1
The subject of data set [2] is BCR-ABL p185^+/Arf^−/− pre B-ALL cells. In words: Systemic pre B-ALL model in C57BL/6 mice, bioluminescence imaging, survival, body weight. The class given is in vivo. The settings on record: VE-822 40 mg/kg orally once daily. The procedure:
All drugs for oral administration were solubilized in Prototype 9′ (PEG-200:Transcutol:Labrasol:Tween-80 mixed in 5:3:1:1 ratio) as single agents or in combination. For i.p. administration, drugs were solubilized in PEG-400 and 1 mM Tris-HCl at a 1:1 (v:v) ratio. Dasatinib (LC Laboratories) was solubilized in 80 mM citric acid (pH 3.1, Boulos et al.) and was administered at a dose of 10 mg/kg by oral gavage. 2×10^5 luciferase expressing p185 cells were injected intravenously into C57BL/6 female mice for leukemia induction. All drugs were administered starting 6 or, 7 days after intravenous cell inoculation, when animals had developed a significant leukemic burden as monitored by bioluminescence imaging (IVIS Bioluminescence Imaging scanner). Dosing schedules are indicated in the text and figure legends. Mice were observed daily; those that became moribund during the trials (paralysis of hind limbs, significant body weight loss) were sacrificed immediately. Kaplan-Meier curves and Bioluminescence quantifications were generated using GraphPad Prism (v6.0f for Mac).
Mice were anesthetized with 2% isoflurane followed by an intraperitoneal injection of 50 μL (50 mg/ml) substrate luciferin. Mice were imaged with IVIS Bioluminescence Imaging scanner after 10 minutes after luciferin administration. […]

For another data set, the system named is CCRF-CEM T-ALL cells. In words: EdU pulse assay of cell cycle progression after release from G1 arrest. The class given is cell-based. The settings on record: 12 h after release from G1. The procedure: Following release from G1, cells progress to early, mid and late S phase (defined as S1, S2 and S3, respectively) and G2/M. By 18 h following release in drug-free media, 42.5% of cells progressed to S3. […] Thus, dCK represents a resistance mechanism to ATR inhibition.
Cells were treated with a CDK4/6 inhibitor, PD-0332991 (Selleckchem) for 18 h to arrest in G1 phase. Subsequently, cells were washed and released into fresh media containing 10% FBS to monitor the progression of synchronized cells throughout the cell cycle by flow cytometry analysis.
For measuring cell cycle progression of synchronous population of cells, cells were first arrested in G1 phase, then washed and released in treated media. Before collecting and fixing cells at various time points, cells were pulse-labeled with 10 μM EdU for 1 h, and then click-labeled with azide-Alexa Fluor 647 (Invitrogen; Click-iT EdU Flow cytometry kit) according to manufacturer's protocol. Total DNA content was assessed by staining with FxCycle-Violet (Invitrogen) at 1 μg/mL final concentration in PBS containing 2% FBS.

For data set [3], the system named is CEM cells. The data set is described as follows: Mass spectrometric assay of de novo (RNR) and salvage (dCK) contribution to dCTP and DNA-C. The class given is cell-based.
Experimental: To analyze the differential utilization of de novo and nucleotide biosynthetic salvage pathways, cultured cells were incubated with stable isotope labeled DNA precursors. […] Extracted dNTP and DNA were analyzed in a triple quadrupole mass spectrometer (QQQ) using multiple reaction monitoring (MRM). The first (Q1) and third (Q3) quadrupoles function as mass filters while the second (Q2) quadrupole serves as a collision chamber. […] In Q2, the glycosidic bond of the selected dC is cleaved, releasing a protonated nucleobase (NB) fragment and a neutral deoxyribose (dR) molecule. The m/z specific NB fragments from dC is separated in Q3 and detected to generate ion chromatograms. […] Each identifier corresponded to a specific biosynthetic pathway and is defined as [x;y], where “x” is the number of heavy isotope-labeled atoms in NB and “y” is the number of heavy isotope atoms in dR. […] According to current biochemical maps of nucleotide metabolism, the [7;5] identifier can only arise from salvaging [U-^13C9,^15N3]dC into newly synthesized DNA. In contrast, a dC with a [0,5] identifier is a product of the de novo pathway. The ratio of the peak areas in the ion chromatograms of salvage [7;5] and de novo [0;5] identifiers describes the relative contributions of the two biosynthetic routes to the dCTP pool used for DNA replication.
(§4) The cells were incubated for 18 h or as indicated in the text before samples collection and processing.
Genomic DNA was extracted using the Quick-gDNA MiniPrep kit (Zymo Research, D3021) and hydrolyzed to nucleosides using the DNA Degradase Plus kit (Zymo Research, E2021) following manufacturer-supplied instructions. In the final step of DNA extraction, 50 μL of water was used to elute the DNA. A nuclease premix solution was prepared by mixing 10× buffer, DNA degradase Plus™ and water in the ratio of 2.5/1/1.5 (v/v/v). DNA hydrolysis reaction was prepared in mass spec vials by mixing 5 μL of the nuclease premix solution (5 U of enzyme) and 20 μL of eluted genomic DNA, the total volume becomes 25 μL. The samples were tapped and flicked downward prior to overnight before incubation at 37° C.
Cells were collected into microcentrifuge tube and centrifuged (450×g, 4 min, 4° C.). The supernatant was carefully aspirated. The cells were washed twice by the addition of 1 mL of cold PBS and centrifugation (450×g, 4 min 4° C.). PBS washes were aspirated. Thereafter, cells were lysed in 40 μL of 70% methanol/water (v/v), vortexed (30 s) and incubated on ice for 10 min. Then 40 μL of chloroform (Fisher) was added, vortexed (30 s) and incubated on ice for another 10 min. The samples were then centrifuged at max speed for 10 min at 4° C. Finally, the supernatant was transferred (≈25 μL) into a mass spec vial.
For genomic DNA and media analysis, an aliquot of DNA hydrolysis or media samples (20 μL) was injected directly onto a porous graphitic carbon column (Thermo Fisher Scientific Hypercarb, 100×2.1 mm, 5 μm particle size) equilibrated in solvent A (water/acetonitrile/formic acid, 95/5/0.2, v/v/v) and eluted (200 μL/min) with an increasing concentration of solvent B (acetonitrile/water/formic acid, 90/10/0.2, v/v/v): min/% B/flow rate (μL/min); 0/0/200, 5/0/200, 10/15/200, 20/15/200, 21/40/200, 25/50/200, 26/100/700, 30/100/700, 3I/O/700, 34/0/700, 35/0/200).
The next data set concerns CEM-R-EYFP. In words: DNA-G biosynthesis labeling in isogenic CEM-R line. The class given is cell-based. To be noted: 6-TG treatment. On the procedure:
(§2) We utilized an isogenic cell line, CEM-R (Owen 1992), which lacks the enzymes dCK and HPRT that are necessary for the salvage pathways for DNA-G biosynthesis. CEM-R cells were engineered to express enhanced yellow fluorescent protein (CEM-R-EYFP, a negative control) and human HPRT (CEM-R-HPRT) and were confirmed by WB. The labeled media contained […] [U-^13C6]glucose to represent the de novo contribution and 5 μM [^15N5]dG to represent salvage pathways, particularly HPRT-dependent nucleobase salvaging. CEM-R-EYFP relied exclusively on the de novo pathway for the DNA-G biosynthesis. In contrast, CEM-R-HPRT utilized both de novo and nucleobase salvage pathways nearly equally.
(§3) The pMSCV-HPRT-IRES-EYFP and pMSCV-TK1-IRES-EYFP plasmids were generated by inserting the human HPRT and TK1 coding sequence into the multiple cloning sites of the MSCV-IRES-EYFP plasmid, respectively. The pMSCV-hdCK-IRES-EYFP plasmid was generated as previously described (Laing RE 2010). Amphotropic retroviruses were generated by transient co-transfection of the MSCV retroviral plasmid and pCL-10A1 packaging plasmid into Phoenix-Ampho packaging cells. To generate EL4-EYFP, EL4-TK1, CEM-R-EYFP, CEM-R-dCK and CEM-R-HPRT lines, parental cells underwent spin-fection with the respective amphotropic retrovirus and were then sorted by flow cytometry to isolate pure populations of transduced cells. […]

The subject of a further data set is CEM-R-HPRT. The data set is described as follows: DNA-G biosynthesis labeling in isogenic CEM-R line. The class given is cell-based. To be noted: 6-TG treatment. The procedure: as §2, §3
The next data set concerns CEM T-ALL cells. The data set is described as follows: ssDNA (F7-26) and pH2A.X measurement by FACS. The class given is cell-based. To be noted: 3-AP 500 nM; 0.5, 4 and 18 h. On the procedure:
Cells were harvested and fixed and permeabilized with cytofix/cytoperm (BD biosciences) for 15 min in dark on ice. Cells were washed and subsequently resuspended in 100 μL 1× Perm/wash buffer (BD Sciences) for 15 min on ice. Cells were washed and subsequently resuspended in 50 μL with phospho-Histone H2A.X (Ser139) antibody conjugated to fluorochrome FITC (EMD Milipore, 1:800 dilutions in perm/wash) for 20 min in dark at ambient temperature. […] Cells were harvested and fixed with ice-cold methanol:PBS (6:1) for 24 h. Staining with F7-26 monoclonal antibody (Mab) was performed according to manufacturer's instructions (EMD Milipore). Fixed cells were resuspended in 250 μL of formamide and heated in a water bath at 75° C. for 10 min. Cells were then allowed to return to room temperature and then washed with 2 ml of 1% non-fat dry milk in PBS for 15 min. Subsequently, cells were resuspended in 100 μL of anti-ssDNA Mab F7-26 (EMD Milipore, 1:10 in 5% FBS in PBS) and incubated for 45 min at room temperature. Cells were washed with PBS and stained with 100 μL of fluorescence-conjugated goat anti-mouse IgM antibody (Santa Cruz Biotechnology, 1:50) for 45 min at room temperature.
For orientation: A flow cytometer gives signals particle by particle.

The subject of data set [4] is CEM cells. In words: Inhibition of CEM cell growth by RNR inhibitors, 72 h. The class given is cell-based. On the procedure: as §1
The subject of data set [5] is dCK activity in p185^BCR-ABLArf^−/− pre-B cells. The data set is described as follows: ^3H-FAC uptake to evaluate dCK activity. The class given is cell-based, mouse. To be noted: after 1 h with 3-AP treatment.
A further data set has as its system leukemia cell growth. The data set is described as follows: IC50 (cytotoxicity assay) of RNR inhibitors, Table 1. The class given is cell-based. The settings on record: 3-AP: cell type independent. On the procedure: as §1
In data set [6] the test system is p185^BCR-ABLArf^−/− pre-B cells. The data set is described as follows: dCTP pool and DNA-C measurement with [U-^13C9,^15N3]dC and [U-^13C6]glucose. The class given is cell-based, mouse. The settings on record: 3, 6, 9 and 12 h treatment.
Experimental: Therefore, p185^BCR-ABLArf^−/− pre-B cells were labeled with [U-^13C9,^15N3]dC and [U-^13C6]glucose to measure the contribution of salvage pathway via dCK and de novo pathway via RNR, respectively.
as §4
A short description of data set [7]: Solubility study in phosphate buffer solution. The class given is physicochemical. The settings on record: aqueous buffer.

Chain of ATM (Q13315 whole entry, species assumed): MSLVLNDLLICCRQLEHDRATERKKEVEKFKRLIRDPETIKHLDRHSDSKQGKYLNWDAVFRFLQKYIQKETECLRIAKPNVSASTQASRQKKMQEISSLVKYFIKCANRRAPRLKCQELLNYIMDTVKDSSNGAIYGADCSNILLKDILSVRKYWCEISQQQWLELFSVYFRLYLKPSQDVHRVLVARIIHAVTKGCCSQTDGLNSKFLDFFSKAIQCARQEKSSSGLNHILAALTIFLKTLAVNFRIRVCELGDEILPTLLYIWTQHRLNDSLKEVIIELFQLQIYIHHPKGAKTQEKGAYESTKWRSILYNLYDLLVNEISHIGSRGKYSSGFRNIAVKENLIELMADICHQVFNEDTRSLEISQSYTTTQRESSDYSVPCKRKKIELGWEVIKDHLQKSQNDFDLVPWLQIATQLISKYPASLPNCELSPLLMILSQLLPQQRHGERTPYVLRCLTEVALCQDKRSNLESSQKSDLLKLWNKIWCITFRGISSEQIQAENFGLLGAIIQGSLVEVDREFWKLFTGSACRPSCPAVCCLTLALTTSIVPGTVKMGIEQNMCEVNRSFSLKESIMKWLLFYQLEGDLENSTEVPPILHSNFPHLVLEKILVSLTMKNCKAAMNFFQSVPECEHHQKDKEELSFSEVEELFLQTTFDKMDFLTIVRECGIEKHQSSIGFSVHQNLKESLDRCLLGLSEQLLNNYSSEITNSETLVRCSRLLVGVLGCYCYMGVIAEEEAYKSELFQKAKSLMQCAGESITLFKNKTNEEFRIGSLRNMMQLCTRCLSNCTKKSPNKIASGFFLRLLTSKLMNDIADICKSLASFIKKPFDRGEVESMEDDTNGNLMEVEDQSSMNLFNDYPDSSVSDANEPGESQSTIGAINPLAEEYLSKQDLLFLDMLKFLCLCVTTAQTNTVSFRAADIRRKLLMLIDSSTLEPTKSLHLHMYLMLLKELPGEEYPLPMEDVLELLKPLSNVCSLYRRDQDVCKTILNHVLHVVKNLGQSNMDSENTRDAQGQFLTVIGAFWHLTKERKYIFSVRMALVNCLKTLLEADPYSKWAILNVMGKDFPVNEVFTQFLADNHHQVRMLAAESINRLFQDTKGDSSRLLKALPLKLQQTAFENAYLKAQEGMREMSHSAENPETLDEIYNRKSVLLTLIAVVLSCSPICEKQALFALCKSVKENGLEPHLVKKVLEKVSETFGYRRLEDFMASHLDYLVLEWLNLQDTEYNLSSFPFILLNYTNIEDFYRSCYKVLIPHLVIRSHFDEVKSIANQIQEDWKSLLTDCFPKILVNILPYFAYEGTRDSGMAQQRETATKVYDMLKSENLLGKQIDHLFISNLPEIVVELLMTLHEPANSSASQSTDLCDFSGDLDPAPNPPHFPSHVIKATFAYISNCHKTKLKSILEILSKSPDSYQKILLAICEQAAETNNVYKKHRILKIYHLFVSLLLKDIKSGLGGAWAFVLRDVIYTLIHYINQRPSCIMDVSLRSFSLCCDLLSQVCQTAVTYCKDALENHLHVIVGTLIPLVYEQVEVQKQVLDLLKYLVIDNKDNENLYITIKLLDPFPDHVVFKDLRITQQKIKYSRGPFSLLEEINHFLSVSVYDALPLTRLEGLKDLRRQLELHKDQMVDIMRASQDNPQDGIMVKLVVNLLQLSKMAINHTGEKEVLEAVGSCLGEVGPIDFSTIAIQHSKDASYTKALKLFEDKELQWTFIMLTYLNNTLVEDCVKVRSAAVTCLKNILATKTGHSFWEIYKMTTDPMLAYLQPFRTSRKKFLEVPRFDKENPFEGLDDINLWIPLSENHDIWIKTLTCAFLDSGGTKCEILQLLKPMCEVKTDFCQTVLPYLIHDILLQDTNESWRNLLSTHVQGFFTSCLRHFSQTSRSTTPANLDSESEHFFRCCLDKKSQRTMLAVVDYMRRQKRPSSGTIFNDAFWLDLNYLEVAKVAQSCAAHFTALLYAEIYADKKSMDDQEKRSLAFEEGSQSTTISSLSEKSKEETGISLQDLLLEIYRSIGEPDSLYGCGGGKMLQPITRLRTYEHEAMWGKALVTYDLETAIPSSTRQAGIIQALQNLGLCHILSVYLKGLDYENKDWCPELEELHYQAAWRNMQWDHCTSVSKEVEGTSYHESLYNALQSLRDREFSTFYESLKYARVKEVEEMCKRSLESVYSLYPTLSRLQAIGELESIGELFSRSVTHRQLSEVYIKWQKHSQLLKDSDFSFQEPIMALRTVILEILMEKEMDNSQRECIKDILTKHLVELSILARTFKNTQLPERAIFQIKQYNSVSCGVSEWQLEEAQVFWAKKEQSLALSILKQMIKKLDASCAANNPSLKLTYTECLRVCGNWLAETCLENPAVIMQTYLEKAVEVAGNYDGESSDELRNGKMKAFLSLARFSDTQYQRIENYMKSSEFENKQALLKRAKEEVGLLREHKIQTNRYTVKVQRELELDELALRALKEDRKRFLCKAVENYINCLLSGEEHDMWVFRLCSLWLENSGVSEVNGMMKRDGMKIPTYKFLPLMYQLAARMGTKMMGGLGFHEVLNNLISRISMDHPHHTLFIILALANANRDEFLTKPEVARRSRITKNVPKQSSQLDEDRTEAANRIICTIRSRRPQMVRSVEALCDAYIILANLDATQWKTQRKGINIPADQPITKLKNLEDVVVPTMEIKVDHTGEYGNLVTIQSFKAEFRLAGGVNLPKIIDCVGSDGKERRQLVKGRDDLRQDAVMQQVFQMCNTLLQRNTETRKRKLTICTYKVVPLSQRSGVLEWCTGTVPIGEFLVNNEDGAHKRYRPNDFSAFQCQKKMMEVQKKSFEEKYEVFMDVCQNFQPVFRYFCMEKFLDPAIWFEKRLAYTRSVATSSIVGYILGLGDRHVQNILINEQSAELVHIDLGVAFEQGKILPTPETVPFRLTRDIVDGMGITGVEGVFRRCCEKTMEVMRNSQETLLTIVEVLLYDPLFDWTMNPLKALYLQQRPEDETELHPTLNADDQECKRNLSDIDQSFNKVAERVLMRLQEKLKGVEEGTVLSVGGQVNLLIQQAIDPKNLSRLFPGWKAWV

As a reminder, the IC50 is the concentration needed to halve the response being measured. Turning to `CNCc1ccc(-c2cc(-c3nc(-c4ccc(S(=O)(=O)C(C)C)cc4)cnc3N)on2)cc1` [VE-822], the IC50 at ATM was 34 µM; in the data set with CEM T-ALL, approximately 0.3 µM; with PANC-1 PDAC cells it was 3 µM. For the same compound, in data set [1], the “phosphorylation of Chk1 and Claspin compared to untreated cells” value was “decreased phosphorylation”. Moreover, the “efficacy of single agent therapy in vivo” value in data set [2] is “not capable of eradicating p185 cells in vivo; also recorded: marginally efficacious”. The “decrease in the number of cells in S2” value in the data set with CCRF-CEM T-ALL cells turned out to be 16%. In addition, the “effect on dCTP pool levels compared to untreated” value with CEM cells [3] (G1 released CEM cells) is “did not significantly impact”. In addition, in the data set with CEM cells [3] (G1 released CEM cells), the “total DNA-C labeling, less than untreated controls” value was 30%.

With `Nc1nc2nc[nH]c2c(=S)[nH]1` [6-thioguanine], the “DNA-G biosynthesis” value in the data set with CEM-R-EYFP is reported as “remained unaffected”. Moreover, the “decrease of de novo and salvage pathway labeling of DNA-G” value in the data set with CEM-R-HPRT was approximately 10 fold.

A word on the solubility: it is the dissolved amount per volume that the medium holds. For the compound `NC(=S)N/N=C/c1ncccc1N` [3-AP, 3-aminopyridine-2-carboxyaldehyde-thiosemicarbazone], the “RS and DNA damage biomarker expression (ssDNA, pH2A.X), words” value with CEM T-ALL cells is reported as “minimally induced”. For the same compound, the “IC50 lower than the other RNR inhibitors (dT, GaM, HU)” value in the data set on CEM cells [4] is 50 to 150 fold. In addition, the “increase in ^3H-FAC uptake” value in data set [5] is approximately 2.5 fold. Besides, the concentration for half-maximal inhibition (IC50) with leukemia cell growth stood at 1.31 µM. Moreover, the “dCTP pool” value in [6] is “increased their dCTP pool”. For the same compound, the solubility in [7] was less than 0.3 mg/mL. Moreover, in the data set with CEM cells [3] (3-AP at 500 nM, 18 h), the “effect on de novo dCTP pool” value is listed as “did not affect” and the “increase in salvage dCTP pool” value came out at 2 fold.
